In US20180099931A1 (AbbVie S.à.r.l., priority 2016, published 2018):
Like-named read-outs stand apart in the source and are kept apart here.

Target: T1, F508delCFTR (Homo sapiens, UniProt P13569, DEL508-508)
T1 construct: expressed in transfected cells; host or cells: CFBE41o- human lung-derived epithelial cells (CFBE4lo-F508delCFTR-HRP), doxycycline-inducible
Experiment: Cell Surface Expression-Horse Radish Peroxidase (CSE-HRP) Assay;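 for Maximum % activity (with co-corrector): co-corrector and positive control are both the same reference corrector at 2 µM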;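 for Maximum % activity (without co-corrector): percent of the 2 µM on-plate positive control corrector response above DMSO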
Type: cell-based
Settings: for Maximum % activity (with co-corrector) / Emax: maximum at any tested concentration, normalized to on-plate positive control; for Emax: read-out: Maximum % activity (without co-corrector)

[1] = CSE-HRP, test compound without co-corrector, read-out: EC50 (without co-corrector)
[2] = CSE-HRP, with co-corrector (2 μM of 3-[(2R,4R)-4-({[1-(2,2-difluoro-1,3-benzodioxol-5-yl)cyclopropyl]carbonyl}amino)-7-methoxy-3,4-dihydro-2H-chromen-2-yl]benzoic acid), read-out: EC50 (with co-corrector)
[3] = CSE-HRP, with co-corrector (2 μM)
[4] = test compound without co-corrector, read-out: EC50 (without co-corrector)
[5] = with co-corrector (2 μM of 3-[(2R,4R)-4-({[1-(2,2-difluoro-1,3-benzodioxol-5-yl)cyclopropyl]carbonyl}amino)-7-methoxy-3,4-dihydro-2H-chromen-2-yl]benzoic acid), read-out: EC50 (with co-corrector)
[6] = test compound without co-corrector
[7] = with co-corrector (2 μM of 3-[(2R,4R)-4-({[1-(2,2-difluoro-1,3-benzodioxol-5-yl)cyclopropyl]carbonyl}amino)-7-methoxy-3,4-dihydro-2H-chromen-2-yl]benzoic acid)

T1 sequence (P13569 with tags, fused parts or gaps DEL508-508): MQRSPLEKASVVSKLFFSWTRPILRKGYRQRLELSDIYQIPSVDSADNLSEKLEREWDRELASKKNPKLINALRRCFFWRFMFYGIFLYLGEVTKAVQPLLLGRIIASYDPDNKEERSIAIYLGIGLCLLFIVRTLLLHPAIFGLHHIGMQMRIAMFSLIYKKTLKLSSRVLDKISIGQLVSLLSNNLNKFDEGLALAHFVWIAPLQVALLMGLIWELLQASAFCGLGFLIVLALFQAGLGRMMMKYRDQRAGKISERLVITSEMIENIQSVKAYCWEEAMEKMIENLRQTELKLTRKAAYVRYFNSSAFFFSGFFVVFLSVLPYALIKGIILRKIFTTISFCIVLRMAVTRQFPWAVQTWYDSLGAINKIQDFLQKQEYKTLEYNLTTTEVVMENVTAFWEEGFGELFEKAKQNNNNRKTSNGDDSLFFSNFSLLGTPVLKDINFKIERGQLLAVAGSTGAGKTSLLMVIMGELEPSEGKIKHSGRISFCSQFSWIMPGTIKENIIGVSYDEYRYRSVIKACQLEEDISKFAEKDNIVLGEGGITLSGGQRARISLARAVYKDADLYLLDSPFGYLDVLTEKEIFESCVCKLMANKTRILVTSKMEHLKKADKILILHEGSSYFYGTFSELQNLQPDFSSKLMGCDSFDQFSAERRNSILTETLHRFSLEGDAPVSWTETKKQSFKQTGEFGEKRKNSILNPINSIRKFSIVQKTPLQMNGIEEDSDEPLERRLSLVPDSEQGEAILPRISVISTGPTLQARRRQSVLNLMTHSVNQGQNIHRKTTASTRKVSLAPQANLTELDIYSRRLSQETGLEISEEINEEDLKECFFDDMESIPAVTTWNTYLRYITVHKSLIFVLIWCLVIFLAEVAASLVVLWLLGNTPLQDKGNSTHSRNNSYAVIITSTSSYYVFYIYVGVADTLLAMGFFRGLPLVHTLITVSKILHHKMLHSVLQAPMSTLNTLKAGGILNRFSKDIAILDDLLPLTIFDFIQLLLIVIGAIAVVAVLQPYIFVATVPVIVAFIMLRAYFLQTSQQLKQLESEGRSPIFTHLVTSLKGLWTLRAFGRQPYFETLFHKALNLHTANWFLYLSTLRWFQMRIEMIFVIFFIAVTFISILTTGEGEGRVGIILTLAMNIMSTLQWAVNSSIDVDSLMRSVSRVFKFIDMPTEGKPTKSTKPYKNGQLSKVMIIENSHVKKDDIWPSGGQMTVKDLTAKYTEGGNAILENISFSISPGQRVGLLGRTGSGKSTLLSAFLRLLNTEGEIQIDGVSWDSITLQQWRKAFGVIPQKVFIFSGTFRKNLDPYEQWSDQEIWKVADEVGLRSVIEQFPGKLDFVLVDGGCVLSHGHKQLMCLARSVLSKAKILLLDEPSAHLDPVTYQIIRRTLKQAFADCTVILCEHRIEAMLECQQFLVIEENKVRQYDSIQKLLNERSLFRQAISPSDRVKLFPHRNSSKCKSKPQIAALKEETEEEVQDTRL

Compound | EC50 [1] [nM] | EC50 [2] [nM] | Maximum % activity (with co-corrector) [3] | Emax (CSE-HRP, without co-corrector) [%] | EC50 [4] [nM] | EC50 [5] [nM] | Maximum % activity (with co-corrector) (with co-corrector (2 μM)) | Emax (without co-corrector) [%] | Emax [6] [%] | Maximum % activity (with co-corrector) [7]
COc1ncccc1CN[C@@H]1[C@@H](C(C)(C)C)[C@H](C(=O)O)N(C(=O)C2CCCCC2)[C@@H]1c1ccccc1 (racemic) [II-6] | 1000 to 10000 | 1000 to 10000 | +++ (≥350) | 100 to 200 |  |  |  |  |  | 
COc1ncc(C2CCC2)cc1CN[C@H]1[C@H](C(C)(C)C)[C@@H](C(=O)O)N(C(=O)[C@@H]2CCCCO2)[C@H]1c1ccccc1Br [Example I-291] | < 1000 | < 1000 | +++ (≥350) | 100 to 200 |  |  |  |  |  | 
COc1cc(C(F)(F)F)ccc1CN[C@H]1[C@H](C(C)(C)OC)[C@@H](C(=O)O)N(C(=O)C2CCCCC2)[C@H]1c1ccccc1 [II-150] | 1000 to 10000 | < 1000 | +++ (≥350) | > 200 |  |  |  |  |  | 
COc1ccc(C(C)(C)C)cc1CN[C@H]1[C@H](C(C)(C)C)[C@@H](C(=O)O)N(C(=O)[C@@H]2CCCCO2)[C@H]1c1cccnc1N(C)C [Example 18, (2S,3S,4S,5S)-3-tert-butyl-4-{[(5-tert-butyl-2-methoxyphenyl)methyl]amino}-5-[2-(dimethylamino)pyridin-3-yl]-1-[(2S)-oxane-2-carbonyl]pyrrolidine-2-carboxylic acid] |  |  |  |  | 1000 to 10000 | 1000 to 10000 | +++ (≥350) | > 200 |  | 
CC(C)COc1ccccc1CN[C@@H]1[C@@H](C(C)(C)C)[C@H](C(=O)O)N(C(=O)C2CCCCC2)[C@@H]1c1ccccc1 (racemic) [II-5] | 1000 to 10000 | 1000 to 10000 | +++ (≥350) | < 100 |  |  |  |  |  | 
COc1cc(C(F)(F)F)ccc1CN[C@@H]1[C@@H](C(C)(C)C)[C@H](C(=O)O)N(C(=O)[C@H](C)c2ccccc2)[C@@H]1c1ccccc1 [Example I-45] |  |  |  |  | > 10000 | > 10000 | + (<150) | < 100 |  | 
COc1ccc(C(C)(C)C)cc1CN[C@H]1[C@H](C(C)(C)C)[C@@H](C(=O)O)N(C(=O)C2CC23CCOCC3)[C@H]1c1ccccc1 (some centres unmarked) [II-442] |  |  |  |  | 1000 to 10000 | 1000 to 10000 |  |  | < 100 | +++ (≥350)
COc1nc2ccccc2cc1CN[C@H]1[C@H](C(C)(C)C)[C@@H](C(=O)O)N(C(=O)[C@@H]2CCCO2)[C@H]1c1ccccc1C(C)C [Example 100, (2S,3S,4S,5S)-3-tert-butyl-4-{[(2-methoxyquinolin-3-yl)methyl]amino}-1-[(2S)-oxolane-2-carbonyl]-5-[2-(propan-2-yl)phenyl]pyrrolidine-2-carboxylic acid] |  |  |  |  | 1000 to 10000 | < 1000 | +++ (≥350) | > 200 |  | 
COc1ccc(C(C)(C)C)cc1CN[C@H]1[C@H](C(C)(C)C)[C@@H](C(=O)O)N(C(=O)[C@H]2CCCCO2)[C@H]1c1cccnc1N(C)C [Example 19, (2S,3S,4S,5S)-3-tert-butyl-4-{[(5-tert-butyl-2-methoxyphenyl)methyl]amino}-5-[2-(dimethylamino)pyridin-3-yl]-1-[(2R)-oxane-2-carbonyl]pyrrolidine-2-carboxylic acid] |  |  |  |  | 1000 to 10000 | 1000 to 10000 | +++ (≥350) | > 200 |  | 
COc1ncc(C2CCCCC2)cc1CN[C@H]1[C@H](C(C)(C)OC)[C@@H](C(=O)O)N(C(=O)C2CCCCC2)[C@H]1c1ccccc1 [II-252] | < 1000 | < 1000 | +++ (≥350) | > 200 |  |  |  |  |  | 
COc1ccc(Br)c(CN[C@H]2[C@H](C(C)(C)C)[C@@H](C(=O)O)N(C(=O)C3CCCCC3)[C@H]2c2ccccc2)c1 [II-110] | 1000 to 10000 | 1000 to 10000 | +++ (≥350) | < 100 |  |  |  |  |  | 
COc1ccc(C(C)(C)C)cc1CN[C@H]1[C@H](C(C)(C)C)[C@@H](C(=O)O)N(C(=O)[C@@H]2C[C@H]2c2cccnc2)[C@H]1c1ccccc1 (relative stereo) [Example I-139] |  |  |  |  | 1000 to 10000 | 1000 to 10000 | +++ (≥350) | > 200 |  | 
COc1ccc(C(C)(C)C)cc1CN[C@H]1[C@H](C(C)(C)C)[C@@H](C(=O)O)N(C(=O)C2Cc3ccccc3S2)[C@H]1c1ccccc1 (some centres unmarked) [II-314] | 1000 to 10000 | < 1000 | +++ (≥350) | > 200 |  |  |  |  |  | 
COc1ccc(C(C)(C)C)cc1CN[C@H]1[C@H](C(C)(C)C)[C@@H](C(=O)O)N(C(=O)CC2CCC(F)(F)CC2)[C@H]1c1ccccc1 [II-188] | 1000 to 10000 | 1000 to 10000 | +++ (≥350) | > 200 |  |  |  |  |  | 
CO[C@H](C(=O)N1[C@H](c2ccccc2)[C@H](Nc2cc(C(F)(F)F)cc(C)n2)[C@@H](C(C)(C)C)[C@@H]1C(=O)O)c1ccccc1 (relative stereo) [Example I-33] |  |  |  |  | > 10000 | 1000 to 10000 | ++ (≥150 and <350) | < 100 |  | 
COc1ncc(-c2ccc(F)cc2C)cc1CN[C@H]1[C@H](C(C)(C)C)[C@@H](C(=O)O)N(C(=O)C2CCCCC2)[C@H]1c1ccccc1 [II-343] |  |  |  |  | < 1000 | < 1000 |  |  | 100 to 200 | +++ (≥350)
COc1ccc(C(C)(C)C)cc1CN[C@H]1[C@H](C(C)(C)C)[C@@H](C(=O)O)N(C(=O)Cc2cccc(F)c2F)[C@H]1c1ccccc1 [II-233] | 1000 to 10000 | < 1000 | +++ (≥350) | > 200 |  |  |  |  |  | 
COc1ncc(-c2ccccc2F)cc1CN[C@H]1[C@H](C(C)(C)C)[C@@H](C(=O)O)N(C(=O)C2CCCCC2)[C@H]1c1ccccc1 [Example I-140] |  |  |  |  | < 1000 | < 1000 | +++ (≥350) | > 200 |  | 
COc1ccc(C(F)(F)F)cc1CN[C@H]1[C@H](C(C)(C)C)[C@@H](C(=O)O)N(C(=O)C2CCCCC2)[C@H]1c1ccccc1 [Example 9, (2S,3S,4S,5S)-3-tert-butyl-1-(cyclohexanecarbonyl)-4-({[2-methoxy-5-(trifluoromethyl)phenyl]methyl}amino)-5-phenylpyrrolidine-2-carboxylic acid] |  |  |  |  | < 1000 | < 1000 | +++ (≥350) | 100 to 200 |  | 

Results, then the compound that gave them:

EC50 [1] [nM] | EC50 [2] [nM] | Maximum % activity (with co-corrector) [3] | Emax (CSE-HRP, without co-corrector) [%] | EC50 [4] [nM] | EC50 [5] [nM] | Maximum % activity (with co-corrector) (with co-corrector (2 μM)) | Emax (without co-corrector) [%] | Emax [6] [%] | Maximum % activity (with co-corrector) [7] | Compound
 |  |  |  | 1000 to 10000 | 1000 to 10000 |  |  | < 100 | ++ (≥150 and <350) | CO[C@@H](C(=O)N1[C@H](c2ccccc2)[C@H](Nc2cc(C(F)(F)F)cc(C)n2)[C@@H](C(C)(C)C)[C@@H]1C(=O)O)c1ccccc1 [III-75]
 |  |  |  | 1000 to 10000 | 1000 to 10000 |  |  | < 100 | ++ (≥150 and <350) | COc1ccccc1[C@@H]1[C@H](NCc2cccc3c2OC(F)(F)O3)[C@@H](C(C)(C)C)[C@H](C(=O)O)N1C(=O)C1CCCCC1 (racemic) [III-45]
 |  |  |  | > 10000 | 1000 to 10000 |  |  | < 100 | ++ (≥150 and <350) | COc1ccc(C(F)(F)F)cc1CN[C@@H]1[C@@H](C(C)(C)C)[C@H](C(=O)O)N(C(=O)[C@H](OC)c2ccccc2)[C@@H]1c1ccccc1 [III-68]
 |  |  |  | 1000 to 10000 | 1000 to 10000 | +++ (≥350) |  | > 200 |  | COc1cc2c(cc1CN[C@H]1[C@H](C(C)(C)C)[C@@H](C(=O)O)N(C(=O)OC(C)C)[C@H]1c1ccccc1)CCC2 [III-226]
 |  |  |  | > 10000 | 1000 to 10000 | ++ (≥150 and <350) |  | < 100 |  | COc1cc(CN[C@H]2[C@H](C(C)(C)C)[C@@H](C(=O)O)N(C(=O)C3CCCCC3)[C@H]2c2ccccc2)cc(OC)c1 [III-133]
 |  |  |  | 1000 to 10000 | 1000 to 10000 | ++ (≥150 and <350) |  | < 100 |  | COc1ccc(-c2cnn(C3CC3)c2)cc1CN[C@H]1[C@H](C(C)(C)C)[C@@H](C(=O)O)N(C(=O)C2CCCCC2)[C@H]1c1ccccc1 [III-187]
 |  |  |  | 1000 to 10000 | 1000 to 10000 |  |  | 100 to 200 | +++ (≥350) | COc1ccc(C(C)(C)C)cc1CN[C@H]1[C@H](C(C)(C)C)[C@@H](C(=O)O)N(C(=O)[C@@H]2CCC[C@H](O)C2)[C@H]1c1ccccc1 [II-515]
 |  |  |  | 1000 to 10000 | 1000 to 10000 |  |  | < 100 | ++ (≥150 and <350) | COc1nnc(C2CCC2)cc1CN[C@H]1[C@H](C(C)(C)C)[C@@H](C(=O)O)N(C(=O)C2CCCCC2)[C@H]1c1ccccc1 [II-496]
 |  |  |  | < 1000 | < 1000 | ++ (≥150 and <350) |  | < 100 |  | CC(C)(C)[C@H]1[C@H](NCc2ccc(F)cc2C(F)(F)F)[C@H](c2ccccc2)N(C(=O)C2CCCCC2)[C@@H]1C(=O)O [III-123]
 |  |  |  | 1000 to 10000 | 1000 to 10000 |  |  | > 200 | +++ (≥350) | COc1ccc(C(C)(C)C)cc1CN[C@H]1[C@H](C(C)(C)C)[C@@H](C(=O)O)N(C(=O)[C@@H]2CCC[C@@](C)(O)C2)[C@H]1c1ccccc1 [II-533]
